Values after ≈ are worked out from the molar mass of the structure shown.
What was measured:
Format in all cases: cell-based
S. aureus UC9213 = experiment: MIC by standard agar dilution, S. aureus UC9213; conditions: incubated overnight at 35° C.; for MIC: Staphylococcus aureus, UC9213, Mueller Hinton agar; for S. aureus UC9213 MIC: Mueller Hinton agar
Text: (§1) The in vitro activity of compounds of the subject invention may be assessed by standard testing procedures such as the determination of minimum inhibitory concentration (MIC) by agar dilution as described in “Approved Standard. Methods for Dilution Antimicrobial Susceptibility Tests for Bacteria that Grow Aerobically,” 3rd ed., published 1993 by the National Committee for Clinical Laboratory standards, Villanova, Pa., USA.
(§2) The in vitro MICs of test compounds may be determined by a standard agar dilution method. A stock drug solution of each analog is prepared in a preferred solvent, usually DMSO:H2O (1:3). Serial 2-fold dilutions of each sample are made using 1.0 mL aliquots of sterile distilled water. To each 1.0 mL aliquot of drug is added 9 mL of molten Mueller Hinton agar medium. The drug-supplemented agar is mixed, poured into 15×100 mm petri dishes, and allowed to solidify and dry prior to inoculation.
(§3) Vials of each of the test organisms are maintained frozen in the vapor phase of a liquid nitrogen freezer. Test cultures are grown overnight at 35° C. on the medium appropriate for the organism. Colonies are harvested with a sterile swab, and cell suspensions are prepared in Trypticase Soy broth (TSB) to equal the turbidity of a 0.5 McFarland standard. A 1:20 dilution of each suspension is made in TSB. The plates containing the drug supplemented agar are inoculated with a 0.001 mL drop of the cell suspension using a Steers replicator, yielding approximately 10^4 to 10^5 cells per spot. The plates are incubated overnight at 35° C.
(§4) Following incubation the Minimum Inhibitory Concentration (MIC μg/mL), the lowest concentration of drug that inhibits visible growth of the organism, is read and recorded.

S. pneumoniae UC9912 = experiment: MIC by standard agar dilution, S. pneumoniae UC9912; conditions: incubated overnight at 35° C.; for MIC: Streptococcus pneumoniae, UC9912, Mueller Hinton agar; for S. pneumoniae UC9912 MIC: Mueller Hinton agar
Text: as §1, §2, §3, §4

H. influenzae 30063 = experiment: MIC by standard agar dilution, H. influenzae 30063; conditions: Mueller Hinton agar, incubated overnight at 35° C.; for MIC: Haemophilus influenzae, 30063, agar dilution, read-out: H. influenzae 30063 MIC; for H. influenzae 30063 MIC: agar dilution
Text: as §1, §2, §3, §4

MIC (S. aureus UC9213)	MIC (S. pneumoniae UC9912)	MIC (H. influenzae 30063)	SMILES	S. aureus UC9213 MIC (S. aureus UC9213)	S. pneumoniae UC9912 MIC (S. pneumoniae UC9912)	H. influenzae 30063 MIC (H. influenzae 30063)
4 µg/mL (≈ 12.6 µM)	2 µg/mL (≈ 6.32 µM)	16 µg/mL (≈ 50.6 µM)	CC(=O)NC[C@H]1CN(c2ccc([C@H]3[C@@H]4COC[C@@H]43)cc2)C(=O)O1 [Example 16, N-[((5S)-3-{4-[exo-(1R,5S)-3-oxabicyclo[3.1.0]hex-6-yl]phenyl}-2-oxo-1,3-oxazolidin-5-yl)methyl]acetamide]			
4 µg/mL (≈ 10.7 µM)	2 µg/mL (≈ 5.36 µM)	8 µg/mL (≈ 21.4 µM)	CC(=O)NC[C@H]1CN(c2ccc([C@H]3[C@@H]4CN(C(=O)CO)C[C@@H]43)cc2)C(=O)O1 [Example 17, N-[((5S)-3-{4-[exo-(1R,5S)-3-glycoloyl-3-azabicyclo[3.1.0]hex-6-yl]phenyl}-2-oxo-1,3-oxazolidin-5-yl)methyl]acetamide]			
2 µg/mL (≈ 5.74 µM)	0.5 µg/mL (≈ 1.44 µM)	4 µg/mL (≈ 11.5 µM)	CC(=O)NC[C@H]1CN(c2ccc([C@H]3[C@@H]4C[S+]([O-])C[C@@H]43)cc2)C(=O)O1 (stereo partly drawn) [Example 18, N-[((5S)-3-{4-[exo-(1R,5S)-3-oxido-3-thiabicyclo[3.1.0]hex-6-yl]phenyl}-2-oxo-1,3-oxazolidin-5-yl)methyl]acetamide]			
4 µg/mL (≈ 11 µM)	1 µg/mL (≈ 2.74 µM)	8 µg/mL (≈ 22 µM)	CC(=O)NC[C@H]1CN(c2ccc([C@H]3[C@@H]4CS(=O)(=O)C[C@@H]43)cc2)C(=O)O1 [Example 19, N-[((5S)-3-{4-[exo-(1R,5S)-3,3-dioxido-3-thiabicyclo[3.1.0]hex-6-yl]phenyl}-2-oxo-1,3-oxazolidin-5-yl)methyl]acetamide]			
2 µg/mL (≈ 5.64 µM)	2 µg/mL (≈ 5.64 µM)	> 64 µg/mL	NC(=O)[C@H]1CN(c2ccc([C@H]3[C@@H]4CS(=O)(=O)C[C@@H]43)c(F)c2)C(=O)O1 [Example 20, (5R)-3-{4-[exo-(1R,5S)-3,3-dioxido-3-thiabicyclo[3.1.0]hex-6-yl]-3-fluorophenyl}-2-oxo-1,3-oxazolidine-5-carboxamide]			>64 µg/mL
4 µg/mL (≈ 11.5 µM)	1 µg/mL (≈ 2.88 µM)	8 µg/mL (≈ 23 µM)	CCC(=O)NC[C@H]1CN(c2ccc([C@H]3[C@@H]4CNC[C@@H]43)c(F)c2)C(=O)O1 [Example 21, N-[((5S)-3-{4-[exo-(1R,5S)-3-azabicyclo[3.1.0]hex-6-yl]-3-fluorophenyl}-2-oxo-1,3-oxazolidin-5-yl)methyl]proyanamide]			
1 µg/mL (≈ 2.66 µM)	0.5 µg/mL (≈ 1.33 µM)	8 µg/mL (≈ 21.3 µM)	CCC(=O)NC[C@H]1CN(c2ccc([C@H]3[C@@H]4CN(C=O)C[C@@H]43)c(F)c2)C(=O)O1 [Example 22, N-[((5S)-3-{3-fluoro-4-[exo-(1R,5S)-3-formyl-3-azabicyclo[3.1.0]hex-6-yl]phenyl}-2-oxo-1,3-oxazolidin-5-yl)methyl]propanamide]			
1 µg/mL (≈ 2.56 µM)	0.25 µg/mL (≈ 0.64 µM)	4 µg/mL (≈ 10.2 µM)	CCC(=O)NC[C@H]1CN(c2ccc([C@H]3[C@@H]4CN(C(N)=O)C[C@@H]43)c(F)c2)C(=O)O1 [Example 23, exo-(1R,5S)-6-(4-{(5S)-5-[(propanoylamino)methyl]-2-oxo-1,3-oxazolidin-3-yl}-2-fluorophenyl)-3-azabicyclo[3.1.0]hexane-3-carboxamide]			

Continued, molecule first:

SMILES	MIC (S. aureus UC9213)	MIC (S. pneumoniae UC9912)	MIC (H. influenzae 30063)	S. aureus UC9213 MIC (S. aureus UC9213)	S. pneumoniae UC9912 MIC (S. pneumoniae UC9912)	H. influenzae 30063 MIC (H. influenzae 30063)
CC(=O)NC[C@H]1CN(c2ccc([C@H]3[C@@H]4C[S+]([O-])C[C@@H]43)c(F)c2)C(=O)O1 (stereo partly drawn) [Example 2, N-[((5S)-3-{3-fluoro-4-[exo-(1R,5S)-3-oxido-3-thiabicyclo[3.1.0]hex-6-yl]phenyl}-2-oxo-1,3-oxazolidin-5-yl)methyl]acetamide]	2 µg/mL (≈ 5.46 µM)	0.25 µg/mL (≈ 0.682 µM)	2 µg/mL (≈ 5.46 µM)			
CC(=O)NC[C@H]1CN(c2ccc([C@H]3[C@@H]4CS(=O)(=O)C[C@@H]43)c(F)c2)C(=O)O1 [Example 3, N-[((5S)-3-{4-[exo-(1R,5S)-3,3-dioxido-3-thiabicyclo[3.1.0]hex-6-yl]-3-fluorophenyl}-2-oxo-1,3-oxazolidin-5-yl)methyl]acetamide]	2 µg/mL (≈ 5.23 µM)	0.25 µg/mL (≈ 0.654 µM)	4 µg/mL (≈ 10.5 µM)			
CC(=O)NC[C@H]1CN(c2ccc([C@H]3[C@@H]4COC[C@@H]43)c(F)c2)C(=O)O1 [Example 4, N-[((5S)-3-{3-fluoro-4-[exo-(1R,5S)-3-oxabicyclo[3.1.0]hex-6-yl]phenyl}-2-oxo-1,3-oxazolidin-5-yl)methyl]acetamide]	4 µg/mL (≈ 12 µM)	0.5 µg/mL (≈ 1.5 µM)	4 µg/mL (≈ 12 µM)			
CC(=O)NC[C@H]1CN(c2ccc([C@H]3[C@@H]4CN(C(=O)CO)C[C@@H]43)c(F)c2)C(=O)O1 [Example 5, N-[((5S)-3-{3-fluoro-4-[exo-(1R,5S)-3-glycoloyl-3-azabicyclo[3.1.0]hex-6-yl]phenyl}-2-oxo-1,3-oxazolidin-5-yl)methyl]acetamide]	2 µg/mL (≈ 5.11 µM)	0.25 µg/mL (≈ 0.639 µM)	4 µg/mL (≈ 10.2 µM)			
O=C(CO)N1C[C@@H]2[C@H](C1)[C@H]2c1ccc(N2C[C@H](CNC(=S)C(F)F)OC2=O)cc1F [Example 6, 2,2-difluoro-N-[((5S)-3-{3-fluoro-4-[exo-(1R,5S)-3-gycoloyl-3-azabicyclo[3.1.0]hex-6-yl]phenyl}-2-oxo-1,3-oxazolidin-5-yl)methyl]ethanethioamide]	0.5 µg/mL (≈ 1.13 µM)	0.25 µg/mL (≈ 0.564 µM)	4 µg/mL (≈ 9.02 µM)			
COC(=O)N1C[C@@H]2C(c3ccc(N4C[C@H](CNC(C)=O)OC4=O)cc3F)[C@@H]2C1 (stereo partly drawn) [Example 7, methyl exo-(1R,5S)-6-(4-{(5S)-5-[(acetylamino)methyl]-2-oxo-1,3-oxazolidin-3-yl}-2-fluorophenyl)-3-azabicyclo[3.1.0]hexane-3-carboxylate]				2 µg/mL	0.5 µg/mL	
CC(=O)NC[C@H]1CN(c2ccc([C@H]3[C@@H]4CN(C=O)C[C@@H]43)c(F)c2)C(=O)O1 [Example 8, N-[((5S)-3-{3-fluoro-4-[exo-(1R,5S)-3-formyl-3-azabicyclo[3.1.0]hex-6-yl]phenyl}-2-oxo-1,3-oxazolidin-5-yl)methyl]acetamide]	4 µg/mL (≈ 11.1 µM)	1 µg/mL (≈ 2.77 µM)	8 µg/mL (≈ 22.1 µM)			
CC(=O)NC[C@H]1CN(c2ccc([C@H]3[C@@H]4CN(C(=O)[C@@H](O)CO)C[C@@H]43)c(F)c2)C(=O)O1 [Example 9, N-[((5S)-3-{3-fluoro-4-[exo-(1R,5S)-3-((2S)-2,3-dihydroxypropanoyl)-3-azabicyclo[3.1.0]hex-6-yl]phenyl}-2-oxo-1,3-oxazolidin-5-yl)methyl]acetamide]	8 µg/mL (≈ 19 µM)	1 µg/mL (≈ 2.37 µM)	8 µg/mL (≈ 19 µM)			
CC(=O)NC[C@H]1CN(c2ccc([C@H]3[C@@H]4CN(C(N)=O)C[C@@H]43)c(F)c2)C(=O)O1 [Example 10, exo-(1R,5S)-6-(4-{(5S)-5-[(acetylamino)methyl]-2-oxo-1,3-oxazolidin-3-yl}-2-fluorophenyl)-3-azabicyclo[3.1.0]hexane-3-carboxamide]	2 µg/mL (≈ 5.31 µM)	0.5 µg/mL (≈ 1.33 µM)	4 µg/mL (≈ 10.6 µM)			
NC(=O)N1C[C@@H]2[C@H](C1)[C@H]2c1ccc(N2C[C@H](CNC(=S)C(F)F)OC2=O)cc1F [Example 11, exo-(1R,5S)-6-[4-((5S)-5-{[(2,2-difluoroethanethioyl)amino]methyl}-2-oxo-1,3-oxazolidin-3-yl)-2-fluorophenyl]-3-azabicyclo[3.1.0]hexane-3-carboxamide]	0.5 µg/mL (≈ 1.17 µM)	0.25 µg/mL (≈ 0.584 µM)	2 µg/mL (≈ 4.67 µM)			
CC(=O)NC[C@H]1CN(c2cc(F)c([C@H]3[C@@H]4C[S+]([O-])C[C@@H]43)c(F)c2)C(=O)O1 (stereo partly drawn) [Example 12, N-[((5S)-3-{3,5-difluoro-4-[exo-(1R,5S)-3-oxido-3-thiabicyclo[3.1.0]hex-6-yl]phenyl}-2-oxo-1,3-oxazolidin-5-yl)methyl]acetamide]				1 µg/mL	0.5 µg/mL	4 µg/mL
CC(=O)NC[C@H]1CN(c2cc(F)c([C@H]3[C@@H]4CS(=O)(=O)C[C@@H]43)c(F)c2)C(=O)O1 [Example 13, N-[((5S)-3-{4-[exo-(1R,5S)-3,3-dioxido-3-thiabicyclo[3.1.0]hex-6-yl]-3,5-difluorophenyl}-2-oxo-1,3-oxazolidin-5-yl)methyl]acetamide]	1 µg/mL (≈ 2.5 µM)	0.5 µg/mL (≈ 1.25 µM)	8 µg/mL (≈ 20 µM)			
CC(=O)NC[C@H]1CN(c2cc(F)c([C@H]3[C@@H]4COC[C@@H]43)c(F)c2)C(=O)O1 [Example 14, N-[((5S)-3-{3,5-difluoro-4-[exo-(1R,5S)-3-oxabicyclo[3.1.0]hex-6-yl]phenyl}-2-oxo-1,3-oxazolidin-5-yl)methyl]acetamide]	2 µg/mL (≈ 5.68 µM)	0.5 µg/mL (≈ 1.42 µM)	16 µg/mL (≈ 45.4 µM)			
CC(=O)NC[C@H]1CN(c2cc(F)c([C@H]3[C@@H]4CN(C(=O)CO)C[C@@H]43)c(F)c2)C(=O)O1 [Example 15, N-[((5S)-3-{3,5-difluoro-4-[exo-(1R,5S)-3-glycoloyl-3-azabicyclo[3.1.0]hex-6-yl]phenyl}-2-oxo-1,3-oxazolidin-5-yl)methyl]acetamide]	2 µg/mL (≈ 4.89 µM)	0.5 µg/mL (≈ 1.22 µM)	16 µg/mL (≈ 39.1 µM)			

Source: US7279494B2, “Antimicrobial [3.1.0] bicyclohexylphenyl-oxazolidinone derivatives and analogues” (Pfizer Inc., priority 2003, dated 2007)
